Experimental data as given in ChEMBL document CHEMBL4020724, “Selective HDAC inhibitors with potent oral activity against leukemia and colorectal cancer: Design, structure-activity relationship and anti-tumor activity study” (Eur J Med Chem, 2017).

Tests used:
Histone deacetylase 2 = Histone deacetylase 2 (Homo sapiens, UniProt Q92769); test: Inhibition of HDAC2 (unknown origin) using Boc-Lys (acetyl)-AMC as substrate incubated for 10 mins followed by substrate addition measured after 30 mins by fluorescence assay
Histone deacetylase 3 = Histone deacetylase 3 (Homo sapiens, UniProt O15379); test: Inhibition of HDAC3 (unknown origin) using Boc-Lys (acetyl)-AMC as substrate incubated for 10 mins followed by substrate addition measured after 30 mins by fluorescence assay
Histone deacetylase 1 = Histone deacetylase 1 (Homo sapiens, UniProt Q13547); test: Inhibition of HDAC1 (unknown origin) using Boc-Lys (acetyl)-AMC as substrate incubated for 10 mins followed by substrate addition measured after 30 mins by fluorescence assay
[1] = Inhibition of class 1 HDAC in human HL60 cells using Boc-Ac-Lys-AMC as substrate incubated for 3 hrs followed by substrate addition measured after 3 hrs by fluorescence assay; type: cell-based; details: HL-60, 3 h
HL-60 = test: cells; details: Homo sapiens, HL-60, 48 h
Description: Antiproliferative activity against human HL60 cells after 48 hrs by MTT assay

Histone deacetylase 4 = Histone deacetylase 4 (Homo sapiens, UniProt P56524); test: Inhibition of HDAC4 (unknown origin) using Boc-Lys (triflouroacetyl)-AMC as substrate incubated for 10 mins followed by substrate addition measured after 30 mins by fluorescence assay
[2] = biological target: T1, Protein deacetylase HDAC6 (Homo sapiens, UniProt Q9UBN7); test: Inhibition of HDAC6 (unknown origin) using Boc-Lys (acetyl)-AMC as substrate incubated for 10 mins followed by substrate addition measured after 30 mins by fluorescence assay
T1 sequence (Q9UBN7 whole entry): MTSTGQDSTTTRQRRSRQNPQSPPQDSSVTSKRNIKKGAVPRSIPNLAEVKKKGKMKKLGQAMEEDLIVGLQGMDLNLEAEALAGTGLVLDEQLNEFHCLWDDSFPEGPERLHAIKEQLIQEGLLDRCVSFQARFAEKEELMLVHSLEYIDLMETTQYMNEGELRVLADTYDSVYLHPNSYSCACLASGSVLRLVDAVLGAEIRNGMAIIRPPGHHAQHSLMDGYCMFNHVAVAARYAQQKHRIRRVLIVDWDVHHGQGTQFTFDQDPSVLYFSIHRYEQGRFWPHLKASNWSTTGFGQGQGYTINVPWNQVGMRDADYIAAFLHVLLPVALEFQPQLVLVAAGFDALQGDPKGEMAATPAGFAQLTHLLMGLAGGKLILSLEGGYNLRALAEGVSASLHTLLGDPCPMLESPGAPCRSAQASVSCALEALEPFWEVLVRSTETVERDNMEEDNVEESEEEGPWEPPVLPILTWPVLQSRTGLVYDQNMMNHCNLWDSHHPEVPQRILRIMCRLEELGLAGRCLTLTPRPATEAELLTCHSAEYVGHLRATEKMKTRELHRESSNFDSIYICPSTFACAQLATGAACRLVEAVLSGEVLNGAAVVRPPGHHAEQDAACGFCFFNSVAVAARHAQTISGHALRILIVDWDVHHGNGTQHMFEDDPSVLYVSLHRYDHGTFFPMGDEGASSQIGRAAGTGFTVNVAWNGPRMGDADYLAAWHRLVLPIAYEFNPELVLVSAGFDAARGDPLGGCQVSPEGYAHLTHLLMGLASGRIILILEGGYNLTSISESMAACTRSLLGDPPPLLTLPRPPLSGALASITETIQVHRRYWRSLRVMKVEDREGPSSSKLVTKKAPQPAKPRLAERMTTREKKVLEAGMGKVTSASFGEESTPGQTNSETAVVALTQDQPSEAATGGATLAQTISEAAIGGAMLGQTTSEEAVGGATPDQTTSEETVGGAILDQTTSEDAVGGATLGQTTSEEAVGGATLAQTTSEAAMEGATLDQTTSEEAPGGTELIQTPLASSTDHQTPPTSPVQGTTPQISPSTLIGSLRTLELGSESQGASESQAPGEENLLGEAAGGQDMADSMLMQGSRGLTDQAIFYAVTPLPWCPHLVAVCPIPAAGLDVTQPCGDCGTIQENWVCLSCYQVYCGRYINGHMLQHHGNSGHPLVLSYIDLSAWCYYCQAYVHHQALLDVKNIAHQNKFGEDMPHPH

Histone deacetylase 8 = biological target: T2, Histone deacetylase 8 (Homo sapiens, UniProt Q9BY41); test: Inhibition of HDAC8 (unknown origin) using Boc-Lys (acetyl)-AMC as substrate incubated for 10 mins followed by substrate addition measured after 30 mins by fluorescence assay
T2 sequence (Q9BY41 whole entry): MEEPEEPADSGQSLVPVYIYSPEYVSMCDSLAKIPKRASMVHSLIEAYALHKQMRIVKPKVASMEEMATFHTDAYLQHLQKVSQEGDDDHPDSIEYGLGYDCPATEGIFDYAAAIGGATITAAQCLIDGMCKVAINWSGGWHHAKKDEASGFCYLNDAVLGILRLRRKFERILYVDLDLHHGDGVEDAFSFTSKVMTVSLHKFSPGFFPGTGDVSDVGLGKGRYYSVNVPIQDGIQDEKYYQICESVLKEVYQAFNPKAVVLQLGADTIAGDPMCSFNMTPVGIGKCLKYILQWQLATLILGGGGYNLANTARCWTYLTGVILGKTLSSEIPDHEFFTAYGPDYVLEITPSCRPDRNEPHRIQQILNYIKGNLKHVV

Histone deacetylase 3, sequence (O15379 whole entry): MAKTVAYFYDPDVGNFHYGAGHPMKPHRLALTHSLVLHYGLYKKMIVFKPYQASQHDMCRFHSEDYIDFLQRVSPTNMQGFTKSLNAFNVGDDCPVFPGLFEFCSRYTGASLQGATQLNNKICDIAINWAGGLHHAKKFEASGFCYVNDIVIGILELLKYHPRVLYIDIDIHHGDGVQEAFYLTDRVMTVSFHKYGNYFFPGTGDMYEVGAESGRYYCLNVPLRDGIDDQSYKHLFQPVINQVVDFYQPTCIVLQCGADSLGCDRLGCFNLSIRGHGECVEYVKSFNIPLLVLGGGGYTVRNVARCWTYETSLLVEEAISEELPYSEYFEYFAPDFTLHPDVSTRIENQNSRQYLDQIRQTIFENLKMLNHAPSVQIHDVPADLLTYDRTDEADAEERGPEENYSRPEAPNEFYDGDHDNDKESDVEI
Histone deacetylase 2, sequence (Q92769 whole entry): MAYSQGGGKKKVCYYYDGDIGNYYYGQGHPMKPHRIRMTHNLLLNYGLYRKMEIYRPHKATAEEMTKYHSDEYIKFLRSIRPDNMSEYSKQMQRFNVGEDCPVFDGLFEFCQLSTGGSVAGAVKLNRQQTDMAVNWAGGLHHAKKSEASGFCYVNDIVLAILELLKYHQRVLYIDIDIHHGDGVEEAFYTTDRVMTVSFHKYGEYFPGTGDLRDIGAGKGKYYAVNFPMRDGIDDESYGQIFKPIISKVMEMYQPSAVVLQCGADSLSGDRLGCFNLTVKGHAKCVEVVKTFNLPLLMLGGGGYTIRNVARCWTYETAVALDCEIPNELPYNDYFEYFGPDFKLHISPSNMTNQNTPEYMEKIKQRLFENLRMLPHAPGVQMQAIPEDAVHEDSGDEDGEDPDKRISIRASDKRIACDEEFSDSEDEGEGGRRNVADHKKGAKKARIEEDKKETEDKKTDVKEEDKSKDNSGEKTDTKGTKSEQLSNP
Histone deacetylase 1, sequence (Q13547 whole entry): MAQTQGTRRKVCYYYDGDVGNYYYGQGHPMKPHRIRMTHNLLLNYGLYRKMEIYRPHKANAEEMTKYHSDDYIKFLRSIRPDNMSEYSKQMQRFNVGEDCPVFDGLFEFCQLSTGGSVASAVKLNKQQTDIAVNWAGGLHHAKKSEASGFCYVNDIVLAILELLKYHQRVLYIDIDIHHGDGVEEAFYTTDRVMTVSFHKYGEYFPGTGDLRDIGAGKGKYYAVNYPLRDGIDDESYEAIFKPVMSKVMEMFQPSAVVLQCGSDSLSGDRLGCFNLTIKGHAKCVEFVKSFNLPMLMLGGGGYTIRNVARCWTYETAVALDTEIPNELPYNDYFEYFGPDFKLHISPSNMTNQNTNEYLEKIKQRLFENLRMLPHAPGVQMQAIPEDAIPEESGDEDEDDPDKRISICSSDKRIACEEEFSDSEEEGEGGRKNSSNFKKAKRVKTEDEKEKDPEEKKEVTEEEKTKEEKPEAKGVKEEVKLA
Histone deacetylase 4, sequence (P56524 whole entry): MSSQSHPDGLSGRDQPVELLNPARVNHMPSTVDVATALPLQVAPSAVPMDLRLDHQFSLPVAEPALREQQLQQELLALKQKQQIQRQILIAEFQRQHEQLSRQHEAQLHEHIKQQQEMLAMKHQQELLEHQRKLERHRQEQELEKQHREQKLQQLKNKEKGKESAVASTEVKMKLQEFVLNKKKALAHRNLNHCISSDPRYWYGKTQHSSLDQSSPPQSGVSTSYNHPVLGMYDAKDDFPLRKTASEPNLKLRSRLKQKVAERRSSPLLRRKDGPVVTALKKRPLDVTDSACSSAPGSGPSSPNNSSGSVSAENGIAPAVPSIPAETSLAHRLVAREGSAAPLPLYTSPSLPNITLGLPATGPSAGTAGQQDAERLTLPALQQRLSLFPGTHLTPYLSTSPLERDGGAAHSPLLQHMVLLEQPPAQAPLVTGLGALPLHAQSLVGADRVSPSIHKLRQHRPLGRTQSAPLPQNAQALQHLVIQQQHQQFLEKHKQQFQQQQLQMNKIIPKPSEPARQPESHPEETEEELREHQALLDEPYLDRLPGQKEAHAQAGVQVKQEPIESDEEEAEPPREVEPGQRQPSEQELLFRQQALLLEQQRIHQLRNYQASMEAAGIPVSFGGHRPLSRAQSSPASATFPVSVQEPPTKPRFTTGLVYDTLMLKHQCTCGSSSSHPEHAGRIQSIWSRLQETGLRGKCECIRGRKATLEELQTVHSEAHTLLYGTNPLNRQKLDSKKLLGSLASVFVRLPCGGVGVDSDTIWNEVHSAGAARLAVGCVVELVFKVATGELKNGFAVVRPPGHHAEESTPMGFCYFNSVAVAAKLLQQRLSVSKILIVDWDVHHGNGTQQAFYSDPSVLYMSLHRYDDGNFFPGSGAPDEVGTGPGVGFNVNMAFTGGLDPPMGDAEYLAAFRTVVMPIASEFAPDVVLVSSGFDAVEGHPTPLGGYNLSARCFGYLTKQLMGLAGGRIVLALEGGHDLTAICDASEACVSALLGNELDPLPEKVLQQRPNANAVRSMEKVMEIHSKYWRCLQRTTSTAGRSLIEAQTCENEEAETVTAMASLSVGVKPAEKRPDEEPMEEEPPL

SMILES | IC50 (Histone deacetylase 2) [µM] | IC50 (Histone deacetylase 3) [µM] | IC50 (Histone deacetylase 1) [µM] | IC50 [1] [µM] | IC50 (HL-60) [µM] | IC50 (Histone deacetylase 4) [µM] | IC50 [2] [µM] | IC50 (Histone deacetylase 8) [µM]
COc1ccc(C(=O)N[C@H](COc2ccc(C(=O)Nc3ccccc3N)cc2)Cc2c[nH]c3ccccc23)cc1 | 0.111 | 0.09 | 0.0147 |  |  |  |  | 
COc1ccc(C(=O)N[C@H](COc2ccc(CC(=O)Nc3ccccc3N)cc2)Cc2c[nH]c3ccccc23)cc1 | > 20 | > 20 | > 20 | > 10 | > 20 |  |  | 
COc1ccc(C(=O)N[C@@H](Cc2c[nH]c3ccccc23)C(=O)Nc2ccc(C(=O)Nc3ccccc3N)cc2)cc1 | 0.441 | 0.227 | 0.0496 | 0.85 | 2.14 |  |  | 
COc1ccc(C(=O)N[C@H](COc2ccc(/C=C/C(=O)Nc3ccccc3N)cc2)Cc2c[nH]c3ccccc23)cc1 | 0.217 | 0.261 | 0.284 |  |  |  |  | 
COc1ccc(C(=O)N[C@@H](Cc2c[nH]c3ccccc23)C(=O)Nc2ccc(C(=O)Nc3cc(-c4cccs4)ccc3N)cc2)cc1 | 0.314 | 62.5 | 0.0365 |  |  |  |  | 
COc1ccc(C(=O)N[C@@H](Cc2c[nH]c3ccccc23)C(=O)NCCCCCC(=O)Nc2ccc(F)cc2N)cc1 | 0.908 | 0.11 | 0.511 |  |  | > 100 | > 100 | > 100

The next lines start with results.

IC50 (Histone deacetylase 2) [µM] | IC50 (Histone deacetylase 3) [µM] | IC50 (Histone deacetylase 1) [µM] | IC50 [1] [µM] | IC50 (HL-60) [µM] | SMILES | IC50 (Histone deacetylase 4) [µM] | IC50 [2] [µM] | IC50 (Histone deacetylase 8) [µM]
 |  |  | 1.51 | 2.38 | CN(C)c1ccc(C(=O)N[C@@H](Cc2c[nH]c3ccccc23)C(=O)NCc2ccc(C(=O)Nc3ccccc3N)cc2)cc1 |  |  | 
0.179 | 0.243 | 0.171 |  |  | COc1ccc(C(=O)N[C@@H](Cc2c[nH]c3ccccc23)C(=O)NCc2ccc(C(=O)Nc3ccc(F)cc3N)cc2)cc1 |  |  | 
 |  |  | 0.91 | 2.4 | Nc1ccccc1NC(=O)c1ccc(CNC(=O)[C@H](Cc2c[nH]c3ccccc23)NC(=O)c2ccco2)cc1 |  |  | 
 |  |  | 0.78 | 1.74 | Nc1ccccc1NC(=O)c1ccc(CNC(=O)[C@H](Cc2c[nH]c3ccccc23)NC(=O)c2cccs2)cc1 |  |  | 
 |  |  | 1.61 | 6.09 | Nc1ccccc1NC(=O)c1ccc(CNC(=O)[C@H](Cc2c[nH]c3ccccc23)NC(=O)c2ccccn2)cc1 |  |  | 
